From PubChem BioAssay (NCI)
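A five-concentration, 48-hour dose response in 96-well plates underlies each endpoint, interpolated linearly between surrounding concentrations. TGI: total growth inhibition.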

Legend:
Assay in all cases: NCI-60 cell line screen, 48 h
[1] = test system: MDA-MB-231 breast
[2] = test system: T-47D breast
[3] = test system: SN12C renal
[4] = test system: SF-539 CNS
[5] = test system: SF-295 CNS
[6] = test system: PC-3 prostate
[7] = test system: MDA-MB-435
[8] = test system: UACC-257 melanoma
[9] = test system: NCI-H460 lung
[10] = test system: HT29 colon
[11] = test system: NCI/ADR-RES ovarian
[12] = test system: ACHN renal
[13] = test system: A549 NSCLC
[14] = test system: RXF 393 renal
[15] = test system: SR leukemia
[16] = test system: SK-MEL-28 melanoma
[17] = test system: 786-0 renal
[18] = test system: HS 578T breast

Row | SMILES | TGI [1] [µM] | TGI [2] [µM] | TGI [3] [µM] | TGI [4] [µM] | TGI [5] [µM] | TGI [6] [µM] | TGI [7] [µM] | TGI [8] [µM] | TGI [9] [µM] | TGI [10] [µM] | TGI [11] [µM] | TGI [12] [µM] | TGI [13] [µM] | TGI [14] [µM] | TGI [15] [µM] | TGI [16] [µM] | TGI [17] [µM] | TGI [18] [µM]
1 | CC(NC(=O)OCc1ccccc1)NC(=O)OC(C)(C)C (stereo not given) | > 100 | > 100 | > 100 | > 100 | > 100 | > 100 | > 100 | > 100 | > 100 | > 100 | > 100 | > 100 | > 100 | 84.3 | > 100 | > 100 | > 100 | > 100
2 | C[N+]12CCCCC1C(COc1cccc3cccnc13)CCC2 (stereo not given) | > 100 | > 100 | > 100 | > 100 | > 100 | > 100 | > 100 | > 100 | > 100 | > 100 | > 100 | > 100 | > 100 | > 100 | > 100 | > 100 | > 100 | > 100
3 | CC12Nc3c(Cl)cc(Cl)cc3N1C(=O)c1ccccc12 (stereo not given) | > 100 | > 100 | > 100 | > 100 | > 100 | > 100 | > 100 | > 100 | > 100 | > 100 | > 100 | > 100 | > 100 | > 100 | > 100 | > 100 | > 100 | > 100
4 | CC(=O)c1c(-c2ccc(Cl)cc2)c(-c2ccc(Cl)cc2)n[nH]c1=O | 86.4 | > 100 | 93.3 | 64.2 | > 100 | > 100 | > 100 | > 100 | > 100 | > 100 | > 100 | 66.1 | > 100 | > 100 | > 100 | > 100 | > 100 | > 100
5 | O=c1[nH]c2cccc([N+](=O)[O-])c2c(=O)n1-c1ccc(Cl)cc1 | 34.3 | 26.8 | 33.9 | 26.2 | 12.2 | 38.1 | 25.5 | 29.6 | 25.8 | 26.1 | 43.6 | 25.1 | 36.3 | 37.1 | 35.2 | 26.8 | 55.9 | 42
6 | COc1ccc(N2C(=O)C3c4[nH]c5ccc(C)cc5c4C4CCC(C(C)(C)C)CC4C3C2=O)cc1 (stereo not given) | > 100 | > 100 | > 100 | 36.5 | 23.3 | > 100 | > 100 | 77.8 | 49.3 | > 100 | 33.2 | 25.5 | > 100 | 38.8 | 32.4 | 33.3 | 48.7 | 9.89
7 | N=c1c2ccccc2nc2oc3cc([N+](=O)[O-])ccc3n12 | 60.5 | 20.3 | > 100 | 65.4 | 54.4 | > 100 | > 100 | > 100 | > 100 | > 100 | 74 | 57.7 | > 100 | 32.5 | > 100 | > 100 | 66.3 | 50.7
8 | CCN(CCCl)c1cc(CN(C)C)cc(NC(=O)c2ccc(C(=O)Nc3cc(CN(C)C)cc(N(CC)CCCl)c3)cc2)c1 | 1.36 | 15.4 | 1.53 | 0.815 | 1.21 | 2.4 | 0.48 | 1.32 | 1.54 | 3.55 | > 100 | 0.994 | 3.89 | 0.109 | 18.1 | 0.536 | 1.3 | 0.761
9 | O=c1[nH]c(=O)n(C/C=C/CO)nc1Br | > 100 | > 100 | > 100 | > 100 | > 100 | > 100 | > 100 | > 100 | > 100 | > 100 | > 100 | > 100 | > 100 | > 100 | > 100 | > 100 | > 100 | > 100
10 | CCCCCCCCCCCCCCCCP(=O)(O)OCC(N)C(=O)O (stereo not given) | 82.7 | > 100 | > 100 | 72.3 | 44.8 | 41.5 | > 100 | > 100 | 64.9 | > 100 | > 100 | 68.8 | > 100 | 75.1 | 91.3 | > 100 | > 100 | > 100
11 | Cn1c(-c2cccs2)cc(-c2cccs2)c1-c1cccs1 | > 100 | > 51.8 | > 100 | > 100 | > 100 | > 100 | > 100 | > 100 | > 100 | > 100 | > 100 | > 100 | > 100 | > 100 | > 100 | > 100 | > 100 | > 100
12 | CCCN(CCc1ccc(-c2ccccc2)cc1)CCc1ccc2n[nH]nc2c1 | 28.1 | 19.2 | 27.4 | 24 | 27.5 | 22.1 | 28.6 | 17.1 | 22.1 | 23.6 | 47 | 25.4 | 30 | 33.1 | 17.9 | 13.6 | 24.9 | 51.8
13 | COc1nn(Cc2ccccn2)c2ccc([N+](=O)[O-])cc12 | > 100 | > 100 | > 100 | > 100 | > 100 | > 100 | > 100 | > 100 | > 100 | > 100 | > 100 | > 100 | > 100 | > 100 | 98.4 | > 100 | > 100 | 88
14 | CC(=O)Nc1ccc(-c2nc3ccccc3s2)cc1Br | > 89 | > 100 | > 100 | > 77.3 | > 100 | > 100 | > 100 | > 100 | > 100 | > 100 | > 100 | > 100 | > 100 | 66 | > 100 | > 100 | > 100 | 69.1
15 | Cc1nc2ccccc2c(=O)n1NC(=O)c1ccccn1 | > 100 | > 100 | > 100 | > 100 | > 100 | > 100 | > 100 | > 100 | > 100 | > 100 | > 100 | > 100 | > 100 | > 100 | > 100 | > 100 | > 100 | > 100
16 | CC(C)OC(=O)c1ccc(NCC2=CC(=O)C=CC2=O)cc1 | 25 | 7.95 | 26.1 | 22.4 | > 83.1 | 25.7 | 26.4 | 27.2 | > 100 | 32.7 | 30.7 | 24.3 | > 100 | 26.2 | 8.37 | 33 | 28.5 | 65.4
17 | CC(C)(C)c1cc(S(=O)(=O)O)c2oc(-c3ccccc3)cc(=O)c2c1 | > 100 | > 100 | > 100 | > 100 | > 100 | > 100 | > 100 | > 100 | > 100 | > 100 | > 100 | > 100 | > 100 | > 100 | > 100 | > 100 | > 100 | > 100
18 | O=C(CP(=O)(c1ccccc1)c1ccccc1)c1cccc(C(=O)CP(=O)(c2ccccc2)c2ccccc2)c1 | > 100 | > 100 | > 100 | > 100 | 30 | > 100 | > 100 | > 100 | > 100 | > 100 | > 100 | > 100 | > 100 | 52.7 | > 100 | > 100 | > 100 | 57.9
19 | O=C(CSc1ncccn1)N/N=C/c1ccccc1OCc1ccccc1 | 95.3 | 70.7 | 72.6 | 46 | 50.9 | > 100 | 31.5 | 53.5 | 94.9 | > 100 | > 100 | > 100 | > 100 | 55.6 | 29.5 | > 100 | > 100 | 95.3
20 | CC[C@]12C=CCN3CC[C@@]4(c5cc(Br)c(OC)c([N+](=O)[O-])c5N(C)[C@H]4[C@@](O)(C(=O)OC)[C@@H]1OC(C)=O)[C@@H]32 | > 100 | > 100 | > 100 | > 100 | > 100 | > 100 | > 100 | > 100 | > 100 | > 100 | > 100 | > 100 | > 100 | > 100 | > 100 | > 100 | > 100 | > 100
21 | O=C1CSC(c2ccccc2)N1c1nc2cc3sc(N4C(=O)CSC4c4ccccc4)nc3cc2s1 (stereo not given) | > 100 | > 100 | > 100 | 15.6 | > 100 | > 100 | > 100 | > 100 | > 100 | > 100 | > 100 | > 100 | > 100 | > 100 | > 100 | > 100 | > 100 | > 100
22 | COc1ccc(CNc2ccn(C3OC(CO)C(O)C3O)c(=O)n2)cc1 (stereo not given) | > 100 | 94.7 | > 100 | > 100 | > 100 | > 100 | > 100 | > 100 | > 100 | > 100 | > 100 | > 100 | > 100 | > 100 | > 100 | > 100 | > 100 | > 100
23 | COc1ccccc1C[C@@H]1OC2(C=CC(=O)CC2SC(=O)c2ccccc2)O[C@H]1Cc1ccccc1OC (stereo not given in full) | 7.23 | 5.64 | 6.49 | 3.08 | 4.14 | 4.71 | 4.61 | 3.02 | 7.87 | 3.14 | 4.55 | 3.5 | 8.67 | 0.501 | 2.81 | 3.22 | 0.973 | 4.73
24 | Cc1sc2nc(N(C)C)oc(=O)c2c1C | > 100 | > 100 | > 100 | > 100 | > 100 | > 100 | > 100 | > 100 | > 100 | > 100 | > 100 | > 100 | > 100 | > 100 | > 100 | > 100 | > 100 | > 100
25 | OCC1OC(NC(=S)NCCC(F)(F)C(F)(F)C(F)(F)C(F)(F)C(F)(F)C(F)(F)F)C(O)C(O)C1O (stereo not given) | > 100 | > 100 | > 100 | > 100 | > 100 | > 100 | > 100 | > 100 | > 100 | > 100 | > 100 | > 100 | > 100 | > 100 | > 100 | > 100 | > 100 | > 100
